“Also recorded” adds a separate entry of the source.

One may read the Kd as a measure of binding affinity in units of concentration.

The test system of one test is Jacalin. The test is described as follows: SPR lectin binding analysis of glycosidase-treated SKMepmin3: Jacalin. On the procedure:
(§1) Figure 7 SPR analysis of bindings of lectin and SKM9-2 to glycosidase-treated SKMepmin3. Purified SKMepmin3 was incubated with α2-3 Neuraminidase S, Neuraminidase A, or Neuraminidase A + O-Glycosidase; and then was immobilized as a ligand on Ni^2+-binding sensor chip NTA. The analytes were used at a concentration of 5 µg/mL. (a) ABA, (b) Jacalin, (c) rACG, (d) SKM9-2. Glycosidase-digested sample was not tested in the experiment with rACG.
(§2) Cell lysate or SKMepmin3 was treated with α2-3 Neuraminidase S, α2-3, 6, 8, 9 Neuraminidase A, and O-Glycosidase (New England Biolabs Japan, Tokyo, Japan) in 50 mM sodium phosphate (pH 7.5) containing 1% Nonidet P-40, according to the manufacturer’s instructions. The cell lysate sample was resolved by 4–15% or 6% SDS-PAGE under reducing conditions and detected by western blotting using SKM9-2. The analysis of the SKMepmin3 sample was performed by SPR.
(§3) The binding of SKM9-2 or lectin to SKMepmin was measured by SPR analysis. SKMepmin was diluted with a running buffer (10 mM HEPES buffer (pH 8.1) containing 150 mM NaCl and 0.005% Tween-20), flowed on Ni^2+-binding sensor chip NTA (GE Healthcare), and affinity-bound through His-tag as a ligand on the sensor chip. Binding analysis of SKM9-2 was performed in a running buffer containing 50 µM EDTA. A non-treated flow cell was used as a reference cell. SKM9-2, anti-sialyl Lewis^X (CSLEX1, Becton, Dickinson and Company Japan, Tokyo, Japan), rACG (Wako Pure Chemical Industries), biotinylated ABA (J-Oil Mills, Inc., Tokyo, Japan), or biotinylated Jacalin (Vector Laboratories, Inc., Burlingame, CA, USA) (each 5 µg/mL) was injected as an analyte with the running buffer. As a regeneration buffer, 350 mM EDTA was used. The dissociation constant was calculated using the manufacturer’s instructions.

Test [1] has as its system recombinant Agrocybe cylindracea lectin (rACG). The test is described as follows: SPR lectin binding analysis of SKMepmin3: rACG. Particulars: non-treated SKMepmin3, rACG 5 µg/mL. How it is done:
as §1, §3

Test [2] relates to Agaricus bisporus agglutinin (ABA). Description: SPR lectin binding analysis of glycosidase-treated SKMepmin3: ABA. Particulars: ABA 5 µg/mL. On the procedure:
as §1, §2, §3

The target of another test is SKM9-2. The test is described as follows: SPR analysis of binding between SKM9-2 and soluble His-tagged minimum epitope peptides (SKMepmin). On the procedure:
Figure 5 SPR analysis of the binding kinetics between SKM9-2 and mutants of minimum epitope. A soluble His-tagged mutant of minimum epitope (SKMepmin) was secreted from transfected HEK293T and immobilized as a ligand on the Ni^2+-binding sensor chip NTA. The upper sensorgrams show the binding kinetics of analyte (5 µg/mL of SKM9-2) to SKMepmins. The control without any peptide is shown as “No peptide” and the negative control peptide cycle is shown as “Control peptide”. The glycan-digested SKMepmin3 that was treated with Neuraminidase A and O-Glycosidase was used as the negative control peptide. The dissociation constant in the lower bar graph was calculated using the manufacturer’s instructions. RU, response units; Signal sequence, the artificial signal sequence (MAPLLLLLLPLLLLPPAAP).
as §1, §2, §3
(In general: SPR reads the build-up and loss of mass on a sensor chip optically.)

The test system of test [3] is anti-sialyl Lewis^X (CSLEX1). The test is described as follows: SPR analysis of binding of anti-sialyl LewisX to SKMepmin3. Particulars: purified SKMepmin3 on sensor chip NTA, analyte 5 µg/mL. On the procedure:
as §3
Supplementary Fig. S2. SPR analysis of binding of anti-sialyl LewisX to SKMepmin3.
Purified SKMepmin3 was immobilized as a ligand on Ni2+-binding sensor chip NTA. The analytes
were used at the concentration of 5 µg/mL.

As to “MAPLLLLLLPLLLLPPAAPGGSKAPSLVSLPAGGDYKDDDDKHHHHHHHH [SKMepmin3, minimum glycosylation peptide 893-…-903 -FLAG-Hisx8 with two disialyl T at Ser893 and Ser900]”, the Jacalin binding entry was “recognized” in the test on Jacalin (SKMepmin3 desialylated with Neuraminidase A, Jacalin 5 µg/mL); “not” with Jacalin (deglycosylated SKMepmin3 (Neuraminidase A + O-Glycosidase), Jacalin 5 µg/mL); “did not bind” with Jacalin (non-treated SKMepmin3, Jacalin 5 µg/mL). In addition, in test [1], the rACG binding result is “interacted”. Besides, the ABA binding result in test [2] (SKMepmin3 deglycosylated with O-Glycosidase and Neuraminidase A) is “lost”; in test [2] (SKMepmin3 desialylated with Neuraminidase A), “enhanced”; in test [2] (non-treated SKMepmin3 as ligand), “bound”. Also, the Kd at SKM9-2 (His-tagged SKMepmin secreted from transfected HEK293T immobilized on Ni2+-binding sensor chip NTA, analyte 5 µg/mL SKM9-2, running buffer 10 mM HEPES pH 8.1, 150 mM NaCl, 0.005% Tween-20, 50 µM EDTA, read-out: KD (M), dissociation constant) is 2.82e-09 M. For the same sequence, the “persistent binding of SKM9-2” value in the test with SKM9-2 (SKMepmin3 desialylated with Neuraminidase A, SKM9-2 5 µg/mL) is on record as “lost”. Besides, the SKM9-2 binding entry in the test with SKM9-2 (SKMepmin3 treated with α2–3 Neuraminidase S, SKM9-2 5 µg/mL) is “weakened”. Besides, the “association rate between SKM9-2 and epitope peptide (in words)” value in the test on SKM9-2 (analyte 5 µg/mL SKM9-2, change caused by the substitution) is recorded as “increased”. Also, the “interaction between SKM9-2 and SKMepmin3” value in the test with SKM9-2 (complete digest of glycan using O-Glycosidase (with Neuraminidase A), SKM9-2 5 µg/mL) was “eliminated”. Also, the “anti-sialyl Lewis^X antibody binding” value in test [3] is “did not bind; also recorded: not bound”.

The values are drawn from PMC6155162, “Identification of mesothelioma-specific sialylated epitope recognized with monoclonal antibody SKM9-2 in a mucin-like membrane protein HEG1” (Scientific Reports, 2018).
